One series deals with T1, Lysyl oxidase (LOX) (Bos taurus, UniProt P33072).
T1 construct: LOX was isolated from bovine aorta; from tissue; host or cells: bovine aorta
T1 sequence (P33072 170-418): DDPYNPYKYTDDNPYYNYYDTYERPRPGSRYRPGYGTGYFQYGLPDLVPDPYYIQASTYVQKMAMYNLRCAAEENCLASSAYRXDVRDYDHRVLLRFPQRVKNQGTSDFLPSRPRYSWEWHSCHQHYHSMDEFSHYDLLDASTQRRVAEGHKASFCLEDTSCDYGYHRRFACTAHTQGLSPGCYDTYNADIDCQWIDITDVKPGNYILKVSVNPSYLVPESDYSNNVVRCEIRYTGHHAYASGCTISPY
As to the kind of experiment: LOX activity assay (Amplex UltraRed/HRP fluorescence) after preincubation of enzyme with inhibitor. Type of series: biochemical, bovine. How it is done:
LOX was isolated from bovine aorta at 4 °C using slight modifications of previously published procedures. All steps were carried out at in 16 mM phosphate, pH 7.8 (buffer B). After blending the aorta in buffer B containing 400 mM NaCl and 1 mM EDTA to remove soluble contaminants, the enzyme was extracted with buffer B containing 4 M urea and 1 mM EDTA. The crude enzyme extract was filtered, diluted with an equal volume of buffer B to obtain a urea concentration of 2 M, and loaded onto a DEAE column. After washing with buffer B containing 400 mM NaCl, the enzyme was eluted with buffer B containing 400 mM NaCl and 6 M urea. The urea concentration was reduced to 4 M by adding buffer B, and the solution was added to a slurry of ceramic hydroxyapatite in buffer B containing 4 M urea. After stirring, the supernatant was removed by filtration and dialyzed overnight against buffer B. The solution was added to a slurry of ceramic hydroxyapatite in buffer B, washed with small portions of 1 M phosphate and then buffer B, and then eluted with buffer B containing 6 M urea and 500 mM NaCl. After concentration to about 20 mL, the protein was applied to a Sephacryl S-200 gel filtration column preequilibrated with buffer B containing 50 mM NaCl, 1 mM EDTA, and 6 M urea and eluted with the same buffer. Active fractions were concentrated to 1 mL. Total protein concentration for 6 M urea solutions[33] was determined by its absorption at 280 nm using a molar extinction coefficient of 8.39 × 10^4 M^−1 cm ^−1.
(§1) The activity assay is adopted from the method described by Palamakumbura et al.[35]. Enzyme and inhibitor were incubated at 37 °C for the desired inhibition time, diluted into the assay mixture, and analyzed by fluorescence (Agilent Technologies Cary Eclipse Fluorescence Spectrometer, Cary Eclipse Software, 37 °C, λex = 568 and λem = 581 nm). The assay was carried out in boric acid buffer (50 mM, pH 8.2) with 1.2 M urea for LOX or in phosphate buffer (0.1 M, pH = 7.0) for LSDAO. The final reagent concentrations in the assay mixture were 10 mM cadaverine, 10 μM Amplex UltraRed (Life Technologies, Carlsbad, CA), and 1 U/mL horse radish peroxidase (Amresco, Solon, OH).
(§2) The enzyme activity, which is proportional to the rate of increase in fluorescence, was measured for each experiment. Residual activity was calculated by dividing each rate by a maximum rate determined in the absence of inhibitor such that [residual activity] = ([rate with inhibitor] – [baseline rate])/([maximum rate] – [baseline rate]). […] The residual activities from replicate experiments were averaged. For each inhibitor concentration, log([average residual activity]) was plotted against inhibition time. Linear lines of best fit forced through the origin were calculated for each data set using Graphpad Prism 5.0b (La Jolla, CA). For each inhibitor, the slopes of these lines (min^−1) were plotted as –1/slope against 1/[inhibitor concentration] to produce a Kitz–Wilson plot.
(§3) To quantify the selectivity of each inhibitor, we defined a numerical “selectivity factor” as the inhibitor's IC50 value for LOX divided by its IC50 value for LSDAO (Figure 3(C)).

In series [1] the target is T2, lentil seedling diamine oxidase (LSDAO) (Lens culinaris, UniProt P49252).
T2 construct: Eight-day-old lentil seedlings (Lens esculenta) were blended and extracted; from tissue; host or cells: eight-day-old lentil seedlings (Lens esculenta)
T2 sequence (P49252 19-667): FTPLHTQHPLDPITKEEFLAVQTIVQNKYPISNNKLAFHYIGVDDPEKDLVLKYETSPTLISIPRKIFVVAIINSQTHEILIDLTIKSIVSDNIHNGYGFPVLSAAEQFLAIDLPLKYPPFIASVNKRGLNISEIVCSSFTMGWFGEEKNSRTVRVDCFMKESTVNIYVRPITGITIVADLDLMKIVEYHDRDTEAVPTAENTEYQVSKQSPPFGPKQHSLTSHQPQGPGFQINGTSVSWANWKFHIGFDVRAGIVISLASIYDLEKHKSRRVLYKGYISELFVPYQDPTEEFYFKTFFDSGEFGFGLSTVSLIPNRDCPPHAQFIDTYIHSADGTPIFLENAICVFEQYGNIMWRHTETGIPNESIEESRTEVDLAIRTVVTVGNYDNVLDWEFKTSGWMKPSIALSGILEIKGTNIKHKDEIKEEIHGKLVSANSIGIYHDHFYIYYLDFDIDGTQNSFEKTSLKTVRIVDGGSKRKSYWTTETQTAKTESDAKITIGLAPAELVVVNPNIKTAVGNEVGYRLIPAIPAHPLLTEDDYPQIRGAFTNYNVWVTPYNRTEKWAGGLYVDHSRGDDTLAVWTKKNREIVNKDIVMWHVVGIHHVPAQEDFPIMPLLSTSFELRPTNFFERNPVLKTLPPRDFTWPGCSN
As to the kind of experiment: LSDAO activity assay (Amplex UltraRed/HRP fluorescence) after preincubation of enzyme with inhibitor. Type of series: biochemical. As for the experimental part: The LSDAO extraction process was carried out at 4 °C according to the method of Floris et al.[30] with slight modifications. Eight-day-old lentil seedlings (Lens esculenta) were blended and extracted with phosphate buffer (5 mM, pH 6.0, buffer A). Ammonium sulfate (230 g/L, 40% saturation) was used to precipitate contaminants, and then additional ammonium sulfate (125 g/L, 60% saturation) was used to precipitate the LSDAO. The crude precipitate was redissolved, dialyzed against buffer A, applied to a DEAE column, and eluted with buffer A. Active fractions were adjusted to pH 6.5, applied to a CM resin column, and eluted with 5 mM phosphate buffer, pH 6.5. Active fractions were concentrated and the buffer was changed to 10 mM phosphate, pH 7.0 before the protein was applied to a Sephacryl S-300 column and eluted with the same buffer. The concentration of the LSDAO dimer was determined from its absorption at 278 nm in 0.1 M phosphate buffer[31] using a molar extinction coefficient of 2.45 × 10^5 M^−1 cm^−1.
as §1, §2, §3
From the slopes and y-intercepts of these lines, the kinetic parameters KI (the reversible binding constant) and k2 (the rate constant for irreversible reaction) (Figure 5(A)) can be calculated.

In series [2] the test system is LOX. To be noted: literature data reprocessed by Kitz-Wilson analysis, cited from earlier work.
The conditions of series [3]: stated in the text without reference; cited from earlier work.
In series [4] the test system is LOX. Details: method as in PMID 2888772. The note with it: chick embryos; cited from earlier work.
In series [5] the test system is LOX. More on the design: method as in PMID 2571459. The note with it: inhibition time not specified; read-out: IC50 LOX in vitro; cited from earlier work.
A further series concerns rat lysyl oxidase. More on the design: method as in PMID 19524603. To be noted: cited from earlier work.
The mark [6] stands for this setting: 10 min, read-out: Average Percent Activity Remaining, LSDAO.

Results on three compounds are retold here after publication PMC6009937, “Comparing hydrazine-derived reactive groups as inhibitors of quinone-dependent amine oxidases” (Journal of Enzyme Inhibition and Medicinal Chemistry, 2017).

Values joined by “and” are separate entries in the source; they are usually repeats but may differ in a detail not shown here. Equal entries are not always repeated.

With `NNc1ccccc1` [compound 1, phenylhydrazine, reference compound], on Lysyl oxidase (LOX), the IC50 amounted to 6 µM. The “Selectivity factor (LOX IC50 value divided by LSDAO IC50 value)” value at Lysyl oxidase (LOX) (10-min preincubation, LOX vs LSDAO) turned out to be 600. In series [1], this compound came in with an IC50 of 0.01 µM. Besides, in series [1] (setting [6]), the remaining activity at 0.005 µM is 80%, the remaining activity at 0.0075 µM is 62%, the remaining activity at 0.01 µM was 50% and the remaining activity at 0.015 µM came out at 13%. Moreover, in series [1] (setting [6]), the remaining activity at 0.03 µM stood at 0%, the remaining activity at 0.1 µM was 0% and the remaining activity at 0.5 µM amounted to 0%. Also, the “LOX k2 (range)” value in the series with LOX [2] was 0.32 (0.16 to >10) min^-1 and 0.32 min^-1. Also, the KI (inactivation) in the series with LOX [2] (read-out: LOX KI^-1 (range)) was 13 µM. In addition, the “pKa of conjugate acid” value in series [3] is given as 5.

Take `NNC(=O)c1ccncc1` [hydrazide of isonicotinic acid]: in the series with LOX [4], the “Inhibition of LOX in vivo” value is “can partially inhibit LOX”.

As for `NNC(N)=O` [semicarbazide], the IC50 with LOX [5] is 30 µM. Moreover, the “Inhibition of lysyl oxidase in vivo compared to BAPN” value with rat lysyl oxidase was “nearly as effective as BAPN”.
